Values of other authors, collected in patent US9833411B2, “Solid oral dosage forms” (Enteris Biopharma, Inc., priority 2015, dated 2017).
Values after ≈ are worked out from the molar mass of the structure shown.

Experiments:
[1] = test system: Methicillin-Resistant Staphylococcus aureus (MRSA), Stenotrophomonas maltophilia, Haemophilus influenzae, and Neisseria gonorrhoeae; settings: values reported
[2] = known formulations

In the case of `CN(C)c1cc(NC(=O)CNC(C)(C)C)c(O)c2c1C[C@H]1C[C@H]3[C@H](N(C)C)C(O)=C(C(N)=O)C(=O)[C@@]3(O)C(O)=C1C2=O` [Tigecycline], the MIC [1] is given as 2 µg/mL (≈ 3.41 µM), the aqueous solubility is given as “approximately 300 mg/mL” and the “maximal oral bioavailability % (% F)” value [2] is given as “less than 5%”.
